Series [1] can be described thus: Water solubility in deionized water. The series is classed as physicochemical. To be noted: for Dissolution observed in water: 3-AP: 5 mg in 100 mL, room temperature, 2 hours, prodrug I: 8 mg in 0.5 mL, a few minutes. On the procedure: In order to test the water solubility of Prodrug I (disodium salt) compared to 3-AP, the following procedure was used. To test the water solubility of 3-AP in deionized water, 5 mg of 3-AP was placed in a 125 mL erlenmeyer flask to which was added 100 mL of water. The mixture was well shaken at room temperature. […] Total water solubility of 3-AP in deionized water was <1 mg/20 mL. In the case of prodrug I (para), 8 mg of the prodrug was placed in a 50 mL erlenmeyer flask.

The nature of series [2]: Conversion of Prodrug I (para) to 3-AP in vitro in presence of S9 fraction of rat liver (FIG. 9). The class given is in vitro ADME. On the procedure: FIG. 9 depicts a graph of the conversion of Prodrug I (para) to 3-AP in the presence of liver S9 fraction.
A 1 μM solution of Prodrug I in culture media was incubated with approximately 2.5 mg of liver S9 fraction.

A further series relates to L1210 leukemia. To be noted: compared with other HCTs reported to date; cited from earlier work.
The test system of a further series is M-109 lung carcinoma. To be noted: compared with other HCTs reported to date; cited from earlier work.
Series [3] deals with A2780 human ovarian carcinoma. To be noted: compared with other HCTs reported to date; cited from earlier work.
The conditions of series [4]: vs hydroxyurea; cited from earlier work.
Series [5] is described as follows: Stability of Prodrug I in culture media alone, HPLC assay. The series is classed as in vitro ADME. To be noted: 37° C., two hours.
The next series deals with M109 tumor cells. Description: In vivo efficacy, M109 tumor growth in Balb/c mice (FIG. 10). The settings on record: 10 mg/kg per injection vs equal molar dose of 3-AP (4.5 mg/kg). On the procedure: (§1) FIGS. 10 and 11 depict a graph comparing the reduction in M109 tumor growth in Balb/c Mice treated with a control, 3-AP or Prodrug I (para).
(§2) Balb/c mice were subcutaneously injected in the right flank on Day 0 with 0.2 mL of a 5×10^6 cell/mL suspension of M109 tumor cells which had been grown to log phase in culture, trypsin digested to separate, washed with PBS and reconstituted. Injections of 3-AP, Prodrug I, or Vehicle Control were given to the […] twice on Day 3, once on Day 4, twice on Day 6 and once on Day 7. Ten mice received only injections of 3 AP, each injection providing a dose of 4.5 mg/kg body weight. Ten mice received only injections of Prodrug I, each injection providing a dose of 10 mg/kg body weight. Ten mice received only injections of the vehicle control. […] FIG. 11 also compares the reduction in M109 tumor growth in Balb/c Mice using two vehicle controls (1-phosphate buffered […] and 2- 10% DMSO). […] Control I was used as a control for the prodrug; control 2 was used for the parent drug.
(§3) Balb/c mice were subcutaneously injected in the right flank on Day 0 with 0.2 mL of a 5×10^6 cell/mL suspension of M109 tumor cells which had been grown to log phase in culture, trypsin digested to separate, washed with PBS and reconstituted. […]

The test system of a further series is M109 tumor. Description: M109 tumor growth in Balb/c mice with two vehicle controls (FIG. 11). The series is classed as in vivo. How it is done: as §1, §2, §3

We go through four compounds from patent US5767134A, “Prodrug forms of ribonucleotide reductase inhibitors 3-AP and 3-AMP” (Vion Pharmaceuticals, Inc., priority 1997, dated 1998).

Each structure is given as a SMILES string. Where a name gives a salt, the structure may show the parent alone.

As to `NC(=S)NN=Cc1ncccc1N` [Prodrug 3-AP, 3-aminopyridine-2-carboxaldehyde thiosemicarbazone], the “Dissolution observed in water” value in [1] was “not totally dissolved”. The “Total water solubility in deionized water” value in series [1] (120 min) is less than 1 mg/20 mL. In addition, the “Stability of recovered 3-AP in liver S9 fraction” value in series [2] (liver S9 fraction) was “stable”. Besides, the “Therapeutic effects against L1210 leukemia” value with L1210 leukemia is recorded as “much better therapeutic effects”. In addition, the “Therapeutic effects against M-109 lung carcinoma” value in the series with M-109 lung carcinoma was “much better therapeutic effects”. Besides, in series [3], the “Therapeutic effects against A2780 human ovarian carcinoma” value is reported as “much better therapeutic effects”. Besides, the “Antineoplastic activity in comparison with hydroxyurea (HU)” value in series [4] is given as “significant antineoplastic activity”.

Take `NC(=S)NN=Cc1ncccc1NC(=O)OCc1ccc(OP(=O)(O)O)cc1` [Prodrug I (disodium salt)]: in series [1], the “Dissolution observed in water” value was “readily dissolved”. Moreover, in [1] (disodium salt vs 3-AP, deionized water), the “Increase in water solubility over 3-AP” value is on record as “more than 300 fold”. For the same compound, the solubility (usually the concentration that dissolves in the medium under given conditions) in [1] (disodium salt, deionized water, read-out: Total water solubility in deionized water) is no less than 16 mg/mL.

On to `Cc1ccnc(C=NNC(N)=S)c1N` [Prodrug 3-AMP, 3-amino-4-methylpyridine-2-carboxaldehyde thiosemicarbazone], for which the “Therapeutic effects against L1210 leukemia” value with L1210 leukemia is reported as “much better therapeutic effects”. Further, the “Therapeutic effects against M-109 lung carcinoma” value with M-109 lung carcinoma is listed as “much better therapeutic effects”. For the same compound, in series [3], the “Therapeutic effects against A2780 human ovarian carcinoma” value was “much better therapeutic effects”. Also, the “Antineoplastic activity in comparison with hydroxyurea (HU)” value in [4] is recorded as “significant antineoplastic activity”.

For the compound `NC(=S)NN=Cc1ncccc1NC(=O)OCc1ccc(OP(=O)(O)O)cc1` [Prodrug I (para)], in series [2] (1 μM, approximately 2.5 mg liver S9 fraction, 37° C.), the “Course of prodrug concentration with liver S9 fraction” value is reported as “decreased very rapidly”. In addition, the “Prodrug concentration after incubation with liver S9 fraction” value in series [2] (1 μM, approximately 2.5 mg liver S9 fraction, after 100 minutes at 37° C.) is on record as “below detection limits”. The Other metabolites found entry in series [2] (1 μM, liver S9 fraction, 37° C.) was “no other metabolites were found”. The “Rate of conversion of Prodrug I to 3-AP” value in series [2] (liver S9 fraction, 37° C.) is recorded as 20 nmole/min/mg rat liver tissue. Further, the metabolised at 1 µM in series [2] (rat, 1 μM, liver S9 fraction, 37° C., read-out: Prodrug recovered as 3-AP) was roughly 80%. In addition, the “Prodrug concentration in culture media alone” value in series [5] is “relatively stable”. In series [5] (HPLC), the “3-AP found in culture media alone” value is given as “no 3-AP was found”. In addition, the “Reduction of tumor growth compared with 3-AP” value is on record as “significantly more effective” with M109 tumor cells (tumors measured Days 7, 10, 13, 17) and “slightly more effective” in the series with M109 tumor cells (tumors measured Days 7, 10, 13, 17, listed as Prodrug I). Further, the “Anti-tumor activity compared to 3-AP or the two controls” value with M109 tumor (controls PBS and 10% DMSO) is reported as “superior anti-tumor activity”. For the same compound, in the series with M109 tumor (mole-to-mole basis), the “Reduction of M109 tumor growth compared with 3-AP” value is listed as “more effective”.
